In one experiment the test system is S. intermedius (1051997). Put plainly: MIC determination by microplate dilution, S. intermedius animal strain. Format: cell-based, Staphylococcus intermedius. The conditions noted are these: Staphylococcus intermedius, Gram-positive, Mueller-Hinton medium, 24 h, 37° C. As to the method: (§1) 1) Preparation of the Preculture
(§2) A negative control (2 mL of sterile culture medium)
(§3) A positive control (1940 μL of culture medium+40 μL of DMSO+20 μL of bacterial suspension) from a thawed biological strain (the biological strains are stored at −80° C. in glycerol).
(§4) The tubes were incubated at 37° C. for 24 hours at 100 rpm.
(§5) The microorganisms were handled under a type L2 laboratory fume cupboard and, before any handling, a UV cycle was programmed and only sterile material was used. […] The chemical compounds to be tested were prepared in a DMSO/methanol mixture (50/50) at a concentration of 5 mg/mL.
(§6) 2) Preparation of the Microplate for the Determination of the Minimum Inhibitory Concentration (MIC)
(§7) After 24 hours of incubation, a measurement of the optical density was taken using a spectrophotometer at 600 nm, collecting 100 μL of the bacterial suspension diluted in 900 μL of the sterile culture medium. This test required the use of a 96-well plate and the required volume of the microbial suspension to be seeded was calculated for an OD corresponding to a value equal to 0.01 in each well. In this plate, the first line corresponded to the negative control (195 μL of sterile culture medium in each well), the second line to the positive control (seeded culture medium supplemented with 2% of DMSO), the third line was loaded twice with bacterial suspension, 8 μL of test product were placed in each well. Thereafter, a 0.5 cascade dilution was performed from this line.
(§8) The first column served as inhibition control. A sterile filter was then placed on the microplate, allowing the passage of gases but not of contaminants. The microplate was incubated at 37° C. under a humid atmosphere for 24 hours.
(§9) NB: The medium used is Mueller-Hinton (MH) medium for bacteria. All the tests were performed in duplicate.
(§10) 4) Reading of the Results
(§11) After incubation, the filter was replaced with a transparent film, and an OD reading was then taken in an iEMS plate spectrophotometer at 620 nm. Calculation of the minimum inhibitory concentration (MIC) was performed.

In a further experiment the test system is S. aureus ATCC25923. Put plainly: MIC determination by microplate dilution, S. aureus human strain. Format: cell-based, Staphylococcus aureus. The note with it: Staphylococcus aureus, ATCC25923, Gram-positive, Mueller-Hinton medium, 24 h, 37° C. On the procedure: as §1, §2, §3, §4, §5, §6, §7, §8, §9, §10, §11
For another experiment, the system named is E. coli (1956). Put plainly: MIC determination by microplate dilution, E. coli animal strain. Format: cell-based, Escherichia coli. The conditions noted are these: Escherichia coli, Gram-negative, Mueller-Hinton medium, 24 h, 37° C. As to the method: as §1, §2, §3, §4, §5, §6, §7, §8, §9, §10, §11
For experiment [1], the system named is P. aeruginosa (1051575). In words: MIC determination by microplate dilution, P. aeruginosa animal strain. Format: cell-based, Pseudomonas aeruginosa. The conditions noted are these: Pseudomonas aeruginosa, Gram-negative, Mueller-Hinton medium, 24 h, 37° C. As to the method: as §1, §2, §3, §4, §5, §6, §7, §8, §9, §10, §11
The test system of a further experiment is CHO-K1 cells. Put plainly: WST1 cytotoxicity test on CHO-K1 cells. The format is cell-based, Chinese hamster. The note with it: Cricetulus griseus, CHO-K1, 24 h, read-out: IC50 (μg/mL) CHO. On the procedure: Test WST1 was used to measure the cytotoxic activity of the products. This is a colorimetric test which makes it possible to measure the viability and the degree of cell proliferation. It is based on cleavage of the colorless tetrazolium salts WST-1 (4-[3-(4-iodophenyl)-2-(4-nitrophenyl)-2H-5-tetrazolio]-1,3-benzene disulfonate) with mitochondrial dehydrogenases to the yellow-colored formazan derivative, which may be quantified by spectrophotometry at 420-480 nm.
The WST1 test was performed on Chinese hamster ovary cells. The CHO-K1 cells (ATCC, USA) are kept in culture on McCoy's 5A medium supplemented with 10% fetal calf serum, 2 mM of L-glutamine and a mixture of penicillin-streptomycin (100 U/ml: 10 μg/mL). The culture is incubated at 37° C. under an atmosphere enriched in CO2 (5%), and subcultured every two days.
The cells are transferred into 96-well plates (25 000 cells/mL) in whole McCoy's 5A medium, and maintained for 24 hours at 37° C. under a humid atmosphere enriched in CO2 (5%). Increasing concentrations of test products are added to the wells in double tests and 8 growth controls containing the cells in the medium alone are included in each series of tests. After 24 hours at 37° C. (5% CO2), the culture medium is removed, the cells are rinsed in phosphate buffer (PBS) and 50 μL of PBS containing 10% of reagent WST1 are added to each well. After 20 minutes of incubation at 37° C., the results are read by spectrophotometry at 450 nm.
The results are expressed in dose-response relationships, modeled by nonlinear regression analysis using the TableCurve software. The 50% inhibitory concentration (IC50) represents the concentration of product that is capable of reducing the cell viability by 50%.

The test system of the next experiment is E. faecalis ATCC29212. Put plainly: MIC determination by microplate dilution, E. faecalis human strain. The conditions noted are these: Enterococcus faecalis, ATCC29212, Gram-positive, Mueller-Hinton medium, 24 h, 37° C. Format: cell-based, Enterococcus faecalis. On the procedure:
as §1, §2, §3, §4, §5, §6, §7, §8, §9, §10, §11

A further experiment has as its system S. aureus (340). In words: MIC determination by microplate dilution, S. aureus animal strain. The format is cell-based, Staphylococcus aureus. The note with it: Staphylococcus aureus, Gram-positive, Mueller-Hinton medium, 24 h, 37° C. On the procedure:
as §1, §2, §3, §4, §5, §6, §7, §8, §9, §10, §11

The test system of another experiment is P. aeruginosa ATCC27853. In words: MIC determination by microplate dilution, P. aeruginosa human strain. The format is cell-based, Pseudomonas aeruginosa. The note with it: Pseudomonas aeruginosa, ATCC27853, Gram-negative, Mueller-Hinton medium, 24 h, 37° C. As to the method: as §1, §2, §3, §4, §5, §6, §7, §8, §9, §10, §11
The subject of experiment [2] is P. aeruginosa (1051575). Put plainly: Potentiation of the doxycycline activity at 2 μg/mL. Format: cell-based, Pseudomonas aeruginosa. The note with it: in combination with doxycycline 2 μg/mL; 24 h, 37°.
The next experiment deals with E. coli ATCC28922. Put plainly: MIC determination by microplate dilution, E. coli human strain. The note with it: Escherichia coli, ATCC28922, Gram-negative, Mueller-Hinton medium, 24 h, 37° C. The format is cell-based, Escherichia coli. As to the method:
as §1, §2, §3, §4, §5, §6, §7, §8, §9, §10, §11

In brackets after ≈: the same amount, converted by molar mass. Where only a bound is given, the exact number is not on record here.

In general, MIC refers to the lowest concentration found to suppress growth. Lower therefore signals greater potency. In the case of `CC(C)OC(=O)CC[C@@H](C)[C@H]1CCC2C3CCC4C[C@@H](NCCCN(CCCN)CCCN)CC[C@]4(C)C3C[C@H](O)[C@@]21C` (stereo partly drawn) [(28), isopropyl 3β-(tris(3-aminopropyl)amine)deoxycholate], the MIC stood at 8 µg/mL (≈ 13.2 µM) against S. intermedius (1051997); 15 µg/mL (≈ 24.8 µM) against S. aureus ATCC25923; 30 µg/mL (≈ 49.6 µM) in the experiment with E. coli (1956); 30 µg/mL (≈ 49.6 µM) against P. aeruginosa (1051575) [1]; 30 µg/mL (≈ 49.6 µM) against E. faecalis ATCC29212; 15 µg/mL (≈ 24.8 µM) against S. aureus (340). Further, the values for the MIC in the experiment on P. aeruginosa ATCC27853 and against E. coli ATCC28922 were 30 µg/mL (≈ 49.6 µM) and 15 µg/mL (≈ 24.8 µM), respectively. In addition, the IC50 in the experiment on CHO-K1 cells was 85 µg/mL (≈ 141 µM). Further, the “MIC - P. aeruginosa (1051575): content of compound of formula (I) to restore the doxycycline activity (at 2 μg/mL)” value (shortened to “MIC - P. aeruginosa (1051575): content”) in the experiment with P. aeruginosa (1051575) [2] is 2 µg/mL.

In the case of `COC(=O)CC[C@@H](C)[C@H]1CCC2C3C(CC[C@@]21C)[C@@]1(C)CC[C@H](NCCCN(C)CCCN)CC1C[C@H]3O` (stereo partly drawn) [(37), methyl 3β-(bis(3-aminopropyl)methylamine)chenodeoxycholate], the MIC was more than 107 µg/mL against S. intermedius (1051997); 27 µg/mL (≈ 50.6 µM) in the experiment on S. aureus ATCC25923; 13 µg/mL (≈ 24.4 µM) with E. coli (1956); 13 µg/mL (≈ 24.4 µM) in the experiment with P. aeruginosa (1051575) [1]; 13 µg/mL (≈ 24.4 µM) against E. faecalis ATCC29212; 27 µg/mL (≈ 50.6 µM) with S. aureus (340). Moreover, the MIC in the experiment on P. aeruginosa ATCC27853 and with E. coli ATCC28922 was 27 µg/mL (≈ 50.6 µM) each time. For the same molecule, in the experiment with CHO-K1 cells, the IC50 worked out at 115 µg/mL (≈ 215 µM). The “MIC - P. aeruginosa (1051575): content” value in the experiment on P. aeruginosa (1051575) [2] worked out at 3 µg/mL.

Take `CC(C)OC(=O)CC[C@@H](C)[C@H]1CCC2C3C(CC[C@@]21C)[C@@]1(C)CC[C@H](NCCCN(C)CCCN)CC1C[C@H]3O` (stereo partly drawn) [(41), isopropyl 3β-(bis(3-aminopropyl)methylamine)chenodeoxycholate]: the MIC against S. intermedius (1051997) was 7 µg/mL (≈ 12.5 µM); with S. aureus ATCC25923, 14 µg/mL (≈ 24.9 µM); against E. coli (1956) it was 28 µg/mL (≈ 49.8 µM); against P. aeruginosa (1051575) [1], 28 µg/mL (≈ 49.8 µM); with E. faecalis ATCC29212 it was 28 µg/mL (≈ 49.8 µM); against S. aureus (340), 14 µg/mL (≈ 24.9 µM). Moreover, the minimum inhibitory concentration (MIC) came out at 28 µg/mL (≈ 49.8 µM) in the experiment with P. aeruginosa ATCC27853 and 56 µg/mL (≈ 99.7 µM) against E. coli ATCC28922. Moreover, the IC50 in the experiment on CHO-K1 cells is 4 µg/mL (≈ 7.12 µM). The “MIC - P. aeruginosa (1051575): content” value in the experiment on P. aeruginosa (1051575) [2] was determined as 4 µg/mL.

On to `COC(=O)CC[C@@H](C)[C@H]1CCC2C3C(CC[C@@]21C)[C@@]1(C)CC[C@H](NCCNCCNCCNCCNCCN)CC1C[C@@H]3O` (stereo partly drawn) [(50), methyl 3β-(pentaethylenehexamine)ursodeoxycholate], for which the MIC against S. intermedius (1051997) was 8 µg/mL (≈ 12.9 µM); in the experiment on S. aureus ATCC25923, 30 µg/mL (≈ 48.3 µM); against E. coli (1956), 60 µg/mL (≈ 96.6 µM); in the experiment on P. aeruginosa (1051575) [1] it was 60 µg/mL (≈ 96.6 µM); against E. faecalis ATCC29212, 60 µg/mL (≈ 96.6 µM); in the experiment with S. aureus (340) it was 30 µg/mL (≈ 48.3 µM). Moreover, the MIC with P. aeruginosa ATCC27853 and in the experiment with E. coli ATCC28922 was 60 µg/mL (≈ 96.6 µM) throughout. In the experiment with CHO-K1 cells, the IC50 stood at 45 µg/mL (≈ 72.5 µM). Moreover, in the experiment on P. aeruginosa (1051575) [2], the “MIC - P. aeruginosa (1051575): content” value worked out at 16 µg/mL.

With `CC(C)OC(=O)CC[C@@H](C)[C@H]1CCC2C3C(CC[C@@]21C)[C@@]1(C)CC[C@H](NCCCNCCCNCCCN)CC1C[C@@H]3O` (stereo partly drawn) [(51), isopropyl 3β-norsperminoursodeoxycholate], the MIC was determined as 4 µg/mL (≈ 6.61 µM) in the experiment on S. intermedius (1051997); 15 µg/mL (≈ 24.8 µM) against S. aureus ATCC25923; 62 µg/mL (≈ 102 µM) in the experiment on E. coli (1956); 30 µg/mL (≈ 49.6 µM) with P. aeruginosa (1051575) [1]; 62 µg/mL (≈ 102 µM) in the experiment with E. faecalis ATCC29212; 15 µg/mL (≈ 24.8 µM) in the experiment on S. aureus (340). The MIC in the experiment with P. aeruginosa ATCC27853 and with E. coli ATCC28922 was 30 µg/mL (≈ 49.6 µM) in each case. The IC50 in the experiment with CHO-K1 cells was found to be 30 µg/mL (≈ 49.6 µM). For the same molecule, in the experiment on P. aeruginosa (1051575) [2], the “MIC - P. aeruginosa (1051575): content” value came to 2 µg/mL.

As for `CC(C)OC(=O)CC[C@@H](C)[C@H]1CCC2C3CCC4C[C@@H](NCCCNCCCNCCCN)CC[C@]4(C)C3C[C@H](O)[C@@]21C` (stereo partly drawn) [Compound (1), isopropyl 3β-norsperminodeoxycholate], the MIC with S. intermedius (1051997) is 2 µg/mL (≈ 3.31 µM); against S. aureus ATCC25923, 4 µg/mL (≈ 6.61 µM); with E. coli (1956) it was 10 µg/mL (≈ 16.5 µM); in the experiment with P. aeruginosa (1051575) [1], 2 µg/mL (≈ 3.31 µM); against E. faecalis ATCC29212 it was 8 µg/mL (≈ 13.2 µM); against S. aureus (340), 2 µg/mL (≈ 3.31 µM). For the same molecule, the MIC in the experiment on P. aeruginosa ATCC27853 and against E. coli ATCC28922 was 8 µg/mL (≈ 13.2 µM) throughout. In addition, the IC50 with CHO-K1 cells came out at 50 µg/mL (≈ 82.6 µM). Also, the “MIC - P. aeruginosa (1051575): content” value with P. aeruginosa (1051575) [2] came out at 2 µg/mL.

For the origin of these results see US20190255073A1, “ESTERS OF 3-POLYAMINE DERIVATIVES OF BILE ACIDS FOR THE TREATMENT OF INFECTIONS” (VIRBAC, priority 2016, published 2019).
